“Also recorded” adds a separate entry of the source.
Legend:
E. coli WP2 uvrA strain = test: Microbial mutagenicity assay (Ames test)
CYP2D6 = target: T1, CYP2D6 (Homo sapiens, UniProt P10635); test: Isozyme-specific CYP450 inhibition; format: in vitro ADME; conditions: recombinant human CYP2D6 with CYP450 reductase (Baculosomes), probe fluorescent substrate (not named)
T1 construct: purchased Thermo Fisher Scientific; host or cells: Baculosomes
Procedure: (§1) For this, the activity of CYP1A2, CYP2A6, CYP2B6, CYP2C9, CYP2C19, CYP2D6, and CYP3A4 was assessed after the administration of CKP-25 at 1 μM to determine (a) the oxidative (CYP-mediated) metabolic stability profile in question and (b) the enzyme metabolizing isoforms responsible (the test system consists of recombinant human CYP450 and CYP450 reductase; cytochrome b5 may also be present). Herein, no concentration-dependent effects were reported. […] No product inhibition or mechanism-based inactivation of the CYP450 isoenzymes in question was obtained. Test-compounds with poor solubility can show artificially low CYP450 inhibition and thus, chemical entities with potential drug–drug interaction toxicities may be overlooked.
(§2) Human cytochrome P450 (CYP450) isoenzymes were expressed in Baculosomes obtained from Thermo Fisher Scientific (Waltham, MA, USA). Reagents were handled and prepared following the manufacturer’s guidelines. Compound CKP-25 was evaluated at a concentration of 1 μM according to our established standard operating procedures and protocols as described previously.[127],[128] The enzymatic activity of various CYP450 isoforms (CYP1A2, CYP2A6, CYP2B6, CYP2C9, CYP2C19, CYP2D6, and CYP3A4) was measured, considering the kinetic model for each isoform. The reactions were conducted in triplicate at 20 °C. NADP+ (10 mM in 100 mM potassium phosphate, pH 8.0) was converted to NADPH using a regeneration system containing glucose-6-phosphate (333 mM) and glucose-6-phosphate dehydrogenase (30 U/mL in 100 mM potassium phosphate, pH 8.0). Upon the addition of the fluorescent substrate, signal monitoring was performed immediately (within 2 min) using appropriate excitation and emission wavelengths, recorded by an Agilent BioTek Lionheart FX (Winooski, VT, USA). CYP450 inhibition (%) was calculated based on the reaction rates (fluorescence intensity changes per unit time). In total, n = 60 meaurements per minute were recorded over a 60 min period. [drawing 2] where X, the rate observed in the presence of a test-compound; A, the rate observed in the presence of negative (solvent, DMSO) control.

CYP3A4 = target: T2, CYP3A4 (Homo sapiens, UniProt P08684); test: Isozyme-specific CYP450 inhibition; format: in vitro ADME; conditions: recombinant human CYP3A4 with CYP450 reductase (Baculosomes), probe fluorescent substrate (not named)
T2 construct: purchased Thermo Fisher Scientific; host or cells: Baculosomes
T2 sequence (P08684 2-503 limits assumed): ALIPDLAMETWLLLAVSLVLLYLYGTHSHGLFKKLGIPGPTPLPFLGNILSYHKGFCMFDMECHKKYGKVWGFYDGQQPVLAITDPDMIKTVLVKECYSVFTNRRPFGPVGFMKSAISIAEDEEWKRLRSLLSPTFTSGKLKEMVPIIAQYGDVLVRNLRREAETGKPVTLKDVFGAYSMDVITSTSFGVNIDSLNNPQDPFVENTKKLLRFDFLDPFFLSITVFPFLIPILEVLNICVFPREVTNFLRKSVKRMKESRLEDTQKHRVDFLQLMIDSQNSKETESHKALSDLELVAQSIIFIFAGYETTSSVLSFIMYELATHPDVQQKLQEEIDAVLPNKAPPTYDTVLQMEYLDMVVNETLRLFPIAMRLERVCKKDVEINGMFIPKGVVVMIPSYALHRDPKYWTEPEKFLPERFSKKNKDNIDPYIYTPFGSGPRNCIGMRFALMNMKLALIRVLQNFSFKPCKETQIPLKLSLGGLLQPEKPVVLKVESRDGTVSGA
Procedure: as §1, §2

CYP2C19 = target: T3, CYP2C19 (Homo sapiens, UniProt P33261); test: Isozyme-specific CYP450 inhibition; format: in vitro ADME; conditions: probe fluorescent substrate (not named)
T3 construct: purchased Thermo Fisher Scientific; host or cells: Baculosomes
T3 sequence (P33261 whole entry): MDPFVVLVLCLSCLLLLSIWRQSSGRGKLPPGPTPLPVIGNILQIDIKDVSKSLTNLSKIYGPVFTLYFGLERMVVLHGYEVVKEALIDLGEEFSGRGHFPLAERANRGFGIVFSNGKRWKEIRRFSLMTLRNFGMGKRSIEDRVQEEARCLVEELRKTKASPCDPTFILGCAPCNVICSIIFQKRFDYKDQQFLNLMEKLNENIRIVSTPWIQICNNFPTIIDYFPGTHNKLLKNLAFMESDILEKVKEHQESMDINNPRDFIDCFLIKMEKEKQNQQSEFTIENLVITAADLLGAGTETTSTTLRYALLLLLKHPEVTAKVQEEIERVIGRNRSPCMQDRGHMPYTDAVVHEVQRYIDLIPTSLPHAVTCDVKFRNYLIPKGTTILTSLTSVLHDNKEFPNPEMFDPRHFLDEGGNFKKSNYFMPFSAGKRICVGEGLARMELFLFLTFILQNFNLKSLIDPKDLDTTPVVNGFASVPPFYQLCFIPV
Procedure: as §1, §2

CYP2B6 = target: T4, CYP2B6 (Homo sapiens, UniProt P20813); test: Isozyme-specific CYP450 inhibition; format: in vitro ADME; conditions: recombinant human CYP2B6 with CYP450 reductase (Baculosomes), probe fluorescent substrate (not named)
T4 construct: purchased Thermo Fisher Scientific; host or cells: Baculosomes
T4 sequence (P20813 1-491): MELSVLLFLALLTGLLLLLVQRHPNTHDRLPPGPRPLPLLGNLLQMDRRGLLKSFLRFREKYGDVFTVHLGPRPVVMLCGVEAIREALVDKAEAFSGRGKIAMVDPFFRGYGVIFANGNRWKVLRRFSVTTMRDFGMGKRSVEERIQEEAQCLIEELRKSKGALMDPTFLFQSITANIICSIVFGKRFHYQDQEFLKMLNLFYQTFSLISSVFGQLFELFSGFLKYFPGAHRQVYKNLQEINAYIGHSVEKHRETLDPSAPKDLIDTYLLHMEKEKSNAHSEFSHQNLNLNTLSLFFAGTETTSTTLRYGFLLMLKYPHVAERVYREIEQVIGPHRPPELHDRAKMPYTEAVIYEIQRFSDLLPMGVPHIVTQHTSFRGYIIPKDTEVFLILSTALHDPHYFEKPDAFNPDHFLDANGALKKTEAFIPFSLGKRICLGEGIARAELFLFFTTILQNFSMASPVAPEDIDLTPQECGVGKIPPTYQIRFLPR
Procedure: as §1, §2

CYP2A6 = target: T5, CYP2A6 (Homo sapiens, UniProt P11509); test: Isozyme-specific CYP450 inhibition; format: in vitro ADME; conditions: recombinant human CYP2A6 with CYP450 reductase (Baculosomes), probe fluorescent substrate (not named)
T5 construct: purchased Thermo Fisher Scientific; host or cells: Baculosomes
T5 sequence (P11509 1-494): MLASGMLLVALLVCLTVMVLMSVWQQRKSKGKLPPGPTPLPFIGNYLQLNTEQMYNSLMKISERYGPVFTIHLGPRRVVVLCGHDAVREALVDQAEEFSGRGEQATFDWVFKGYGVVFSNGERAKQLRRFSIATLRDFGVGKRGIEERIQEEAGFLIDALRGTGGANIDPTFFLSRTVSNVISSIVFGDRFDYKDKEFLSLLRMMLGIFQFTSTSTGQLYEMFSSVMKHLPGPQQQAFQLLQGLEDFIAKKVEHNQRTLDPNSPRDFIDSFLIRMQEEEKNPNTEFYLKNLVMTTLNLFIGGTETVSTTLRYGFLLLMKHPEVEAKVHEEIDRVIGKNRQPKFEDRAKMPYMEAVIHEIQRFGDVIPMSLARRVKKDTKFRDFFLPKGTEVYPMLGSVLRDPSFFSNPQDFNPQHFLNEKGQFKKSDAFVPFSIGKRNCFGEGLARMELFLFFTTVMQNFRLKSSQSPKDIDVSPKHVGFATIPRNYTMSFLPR
Procedure: as §1, §2

SARS-CoV-2 = format: cell-based

T1 sequence (P10635 whole entry): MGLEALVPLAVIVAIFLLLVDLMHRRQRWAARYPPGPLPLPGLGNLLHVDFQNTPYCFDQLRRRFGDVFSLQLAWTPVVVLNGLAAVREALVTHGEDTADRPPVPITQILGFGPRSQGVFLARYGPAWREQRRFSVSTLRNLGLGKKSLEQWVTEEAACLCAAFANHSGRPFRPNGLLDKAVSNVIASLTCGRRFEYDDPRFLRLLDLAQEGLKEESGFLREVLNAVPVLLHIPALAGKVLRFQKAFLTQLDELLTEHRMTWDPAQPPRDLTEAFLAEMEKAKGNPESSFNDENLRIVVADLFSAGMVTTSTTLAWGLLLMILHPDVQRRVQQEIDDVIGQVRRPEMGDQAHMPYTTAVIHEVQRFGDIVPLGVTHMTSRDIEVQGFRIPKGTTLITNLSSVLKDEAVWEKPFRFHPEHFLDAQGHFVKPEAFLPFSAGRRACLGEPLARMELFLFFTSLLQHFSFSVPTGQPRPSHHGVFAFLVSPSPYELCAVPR

## COc1cccc2c1ncn2Cc1ccc2ccccc2c1 [CKP-25, 4-Methoxy-1-(naphthalen-2-ylmethyl)-1H-benzo[d]imidazole]
E. coli WP2 uvrA strain; 2.5 μg/plate, +S9
  mean revertants: 13
E. coli WP2 uvrA strain; 2.5 μg/plate, –S9
  mean revertants: 7.5
E. coli WP2 uvrA strain; 25 μg/plate, +S9
  mean revertants: 19
E. coli WP2 uvrA strain; 25 μg/plate, –S9
  mean revertants: 12.5
E. coli WP2 uvrA strain; 50 μg/plate, +S9
  mean revertants: 15
E. coli WP2 uvrA strain; 50 μg/plate, –S9
  mean revertants: 13
E. coli WP2 uvrA strain; 100 μg/plate, +S9
  mean revertants: 13
E. coli WP2 uvrA strain; 100 μg/plate, –S9
  mean revertants: 11.5
E. coli WP2 uvrA strain; 200 μg/plate, +S9
  mean revertants: 16
E. coli WP2 uvrA strain; 200 μg/plate, –S9
  mean revertants: 5.5
E. coli WP2 uvrA strain; 12.5 to 200 μg/plate, with and without S9-mix
  mutagenic activity (in words): does not elicit mutagenic effect; also recorded: does not exhibit mutagenic activity
CYP2D6
  inhibition at 60 min, 1 µM: 1%
CYP3A4
  inhibition at 60 min, 1 µM: 3%
CYP2C19
  inhibition at 60 min, 1 µM: 20%
CYP2B6
  inhibition at 60 min, 1 µM: 0%
CYP2A6
  inhibition at 60 min, 1 µM: 6%
SARS-CoV-2
  effect on viral load in the cell culture supernatant (in words): reduced the viral load

— paper PMC11600510 (Journal of Chemical Information and Modeling, 2024)
